In patent publication US20240190891A1, “PYRIDO OXAZINE AMINO DERIVATIVES AS ALK5 INHIBITORS” (CHIESI FARMACEUTICI S.P.A., priority 2020, published 2024):

The compounds below were run against T1, human ALK5 (Homo sapiens, UniProt P36897) (assay: ADP-GLO Kinases assay, inhibitory activity on ALK5). Settings: Table 10; purified recombinant human ALK5 2.6 nM, ADP-Glo, 25° C., 150 min incubation.
T1 construct: human ALK5 (recombinant TGF β1 N-term GST-tagged, 80-end); GST (N); purchased
T1 sequence (P36897 80-503 limits assumed): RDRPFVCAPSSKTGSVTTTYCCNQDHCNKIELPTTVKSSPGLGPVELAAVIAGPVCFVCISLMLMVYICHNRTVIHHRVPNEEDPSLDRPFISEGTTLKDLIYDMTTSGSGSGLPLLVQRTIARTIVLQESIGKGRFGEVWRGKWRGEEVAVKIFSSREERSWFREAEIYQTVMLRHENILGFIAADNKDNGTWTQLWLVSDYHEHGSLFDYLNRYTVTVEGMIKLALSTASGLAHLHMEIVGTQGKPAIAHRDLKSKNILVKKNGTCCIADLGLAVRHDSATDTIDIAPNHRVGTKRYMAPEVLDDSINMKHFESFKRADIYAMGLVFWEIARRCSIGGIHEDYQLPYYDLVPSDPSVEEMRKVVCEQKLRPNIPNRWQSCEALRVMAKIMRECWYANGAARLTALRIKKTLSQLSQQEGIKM
Format: biochemical
Description: The enzymatic activity of compounds of the present invention was monitored measuring the formation of ADP using the ADP-GLO Kinases assay. Following the incubation of the purified enzyme, a substrate and ATP, the produced ADP was converted into ATP, which in turn was converted into light by Ultra-Glo Luciferase. The luminescent signal positively correlated with ADP amount and kinase activity. Briefly, the kinase reaction was performed by incubating 2.6 nM of the purified, commercially available human ALK5 (recombinant TGF β1 N-term GST-tagged, 80-end), a final concentration of TGFβ1 peptide 94.5 μM (Promega, T36-58) and ultra-pure ATP (Promega V915B). The ATP concentration was set at the Km value (concentration of substrate which permits the enzyme to achieve half maximal velocity (Vmax)) of ALK5 (5 μM). All reactions/incubations were performed at 25° C. Compound and ALK5 kinase were mixed and incubated for 15 mins. Reactions were initiated by addition of ATP at a final concentration in the assay of 0.83 μM. After an incubation of 150 min, the reaction was stopped, and ADP production detected with ADP-Glo kit according to manufacturer's indications. The assay was performed in 384-well format and was validated using a selection of reference compounds that was tested in 11 point concentration-response curve.
Compounds of the examples C1, C2 and C3 were tested in the same in vitro assay described above.

| IC50 | Structure (SMILES) |
| --- | --- |
| < 1 nM | CN1CCC(CCNC(=O)c2cc3c(Nc4cc(-c5cc(Cl)ccc5F)nc5c4OCCN5)ccnc3[nH]2)CC1 [Example 48, 4-{[6-(5-chloro-2-fluorophenyl)-2H,3H,4H-pyrido[3,2-b][1,4]oxazin-8-yl]amino}-N-[2-(1-methylpiperidin-4-yl)ethyl]-1H-pyrrolo[2,3-b]pyridine-2-carboxamide] |
| 1 to 5 nM | CC(C)NC(=O)c1cnccc1Nc1cc(-c2cc(Cl)ccc2F)nc2c1OCCN2 [Example 22, 4-{[6-(5-chloro-2-fluorophenyl)-2H,3H,4H-pyrido[3,2-b][1,4]oxazin-8-yl]amino}-N-(propan-2-yl)pyridine-3-carboxamide] |
| 1 to 5 nM | Cc1cccc(-c2cc(Nc3ccncc3C(=O)NC3CCN(C)CC3)c3c(n2)NCCO3)n1 [Example 42, N-(1-methylpiperidin-4-yl)-4-{[6-(6-methylpyridin-2-yl)-2H,3H,4H-pyrido[3,2-b][1,4]oxazin-8-yl]amino}pyridine-3-carboxamide] |
| 1 to 5 nM | CN(CCNC(=O)c1cnccc1Nc1cc(-c2cc(Cl)ccc2F)nc2c1OCCN2)C1COC1 [Example 43, 4-{[6-(5-chloro-2-fluorophenyl)-2H,3H,4H-pyrido[3,2-b][1,4]oxazin-8-yl]amino}-N-{2-[methyl(oxetan-3-yl)amino]ethyl}pyridine-3-carboxamide] |
| < 1 nM | CN(C)CCNC(=O)c1cc2c(Nc3cc(-c4cc(Cl)ccc4F)nc4c3OCCN4)ccnc2[nH]1 [Example 49, 4-{[6-(5-chloro-2-fluorophenyl)-2H,3H,4H-pyrido[3,2-b][1,4]oxazin-8-yl]amino}-N-[2-(dimethylamino)ethyl]-1H-pyrrolo[2,3-b]pyridine-2-carboxamide] |
| < 1 nM | O=C(O)c1cnccc1Nc1cc(-c2cc(Cl)ccc2F)nc2c1OCCN2 [Example 16, lithium 4-{[6-(5-chloro-2-fluorophenyl)-2H,3H,4H-pyrido[3,2-b][1,4]oxazin-8-yl]amino}pyridine-3-carboxylate] |

More lines, now with the values behind:

| Structure (SMILES) | IC50 |
| --- | --- |
| Cc1csc(-c2cc(Nc3ccncc3)c3c(n2)NCCO3)n1 [Example 4, N-[6-(4-methyl-1,3-thiazol-2-yl)-2H,3H,4H-pyrido[3,2-b][1,4]oxazin-8-yl]pyridin-4-amine] | 5 to 10 nM |
| Fc1ccc(Cl)cc1-c1cc(Nc2ccnc3[nH]ncc23)c2c(n1)NCCO2 [Example 25, 6-(5-chloro-2-fluorophenyl)-N-{1H-pyrazolo[3,4-b]pyridin-4-yl}-2H,3H,4H-pyrido[3,2-b][1,4]oxazin-8-amine] | < 1 nM |
| Cc1ccc(F)c(-c2cc(Nc3ccncc3)c3c(n2)NCCO3)c1 [Example 8, N-[6-(2-fluoro-5-methylphenyl)-2H,3H,4H-pyrido[3,2-b][1,4]oxazin-8-yl]pyridin-4-amine] | < 1 nM |
| Cc1cccc(-c2cc(Nc3ccncc3)c3c(n2)NCCO3)n1 [Example 5, N-[6-(6-methylpyridin-2-yl)-2H,3H,4H-pyrido[3,2-b][1,4]oxazin-8-yl]pyridin-4-amine] | 5 to 10 nM |
| Clc1cccc(-c2cc(Nc3ccncc3)c3c(n2)NCCO3)n1 [Example 13, N-[6-(6-chloropyridin-2-yl)-2H,3H,4H-pyrido[3,2-b][1,4]oxazin-8-yl]pyridin-4-amine] | 1 to 5 nM |
| CN(C)CCC(=O)Nc1cnccc1Nc1cc(-c2cc(Cl)ccc2F)nc2c1OCCN2 [Example 39, N-(4-{[6-(5-chloro-2-fluorophenyl)-2H,3H,4H-pyrido[3,2-b][1,4]oxazin-8-yl]amino}pyridin-3-yl)-3-(dimethylamino)propanamide] | 5 to 10 nM |
| CN1CCN(CCC(=O)Nc2cc(Nc3cc(-c4cc(Cl)ccc4F)nc4c3OCCN4)ccn2)CC1 [Example 33, N-(4-{[6-(5-chloro-2-fluorophenyl)-2H,3H,4H-pyrido[3,2-b][1,4]oxazin-8-yl]amino}pyridin-2-yl)-3-(4-methylpiperazin-1-yl)propanamide] | < 1 nM |
| Cc1cccc(-c2cc(Nc3ccnc4[nH]ncc34)c3c(n2)NCCO3)n1 [Example 41, 6-(6-methylpyridin-2-yl)-N-{1H-pyrazolo[3,4-b]pyridin-4-yl}-2H,3H,4H-pyrido[3,2-b][1,4]oxazin-8-amine] | < 1 nM |
